Assay results from US7008905B2, “Method of combating undesired plant growth on cereals” (BASF Aktiengesellschaft, priority 2000, dated 2006).

Legend:
Assay type in all cases: in vivo
Stellaria media [1] = experiment: Post-emergence test, weed control; conditions: 2–4 weeks after treatment, rating 0-100 (100=death), Table 5
Experimental: (§1) These acetone solutions are diluted with water and the resulting formulations applied at dosage levels equivalent of about 0.030 to 0.240 kg per hectare of test compound per pot. After spraying the plants are placed an greenhouse benches and are cared for in the usual manner, commensurate with conventional greenhouse practices. From 2 to 4 weeks after treatment, the seedling plants are examined and rated according to the rating system provided above. A rating 0 indicates growth as untreated control, a rating 100 indicates death.

VIOAR = experiment: Post-emergence test, weed control; conditions: 2–4 weeks after treatment, rating 0-100 (100=death), Table 5
Experimental: as §1

Galium aparine [2] = experiment: Post-emergence test, weed control; conditions: 2–4 weeks after treatment, rating 0-100 (100=death), Table 5
Experimental: as §1

Lamium purpureum [3] = experiment: Post-emergence test, weed control; conditions: 2–4 weeks after treatment, rating 0-100 (100=death), Table 5
Experimental: as §1

Stellaria media [4] = experiment: Pre-emergence test, weed control; conditions: 3 weeks after treatment, rating 0-100 (100=death), Table 1
Summary of the method: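 Scores from 0 (growth like untreated control) to 100 (death) were assigned by eye three weeks post-spray, with 10 units approximating a 10% change in effect. Treatment was applied to freshly sown loam at 15 to 240 g active material per hectare.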

Alopecurus myosuroides = experiment: Pre-emergence test, weed control; conditions: 3 weeks after treatment, rating 0-100 (100=death), Table 1
Summary of the method: (§2)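 Compound in acetone with 0.4% w/w alkylphenol/ethylene oxide condensate, diluted in water, was sprayed onto horticultural loam freshly sown with seeds. Rates were 15, 30, 60, 120 or 240 g active/ha in 900 l/ha. Effects were scored visually at three weeks on a 0–100 scale (0 = as untreated sown soil, 100 = death).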

Apera spica-venti = experiment: Pre-emergence test, weed control; conditions: 3 weeks after treatment, rating 0-100 (100=death), Table 1
Summary of the method: as §2

Galium aparine [5] = experiment: Pre-emergence test, weed control; conditions: 3 weeks after treatment, rating 0-100 (100=death), Table 1
Summary of the method: as §2

Lolium perenne = experiment: Pre-emergence test, weed control; conditions: 3 weeks after treatment, rating 0-100 (100=death), Table 1
Summary of the method: as §2

Lamium purpureum [6] = experiment: Pre-emergence test, weed control; conditions: 3 weeks after treatment, rating 0-100 (100=death), Table 1
Summary of the method: as §2

Matricaria inodora = experiment: Pre-emergence test, weed control; conditions: 3 weeks after treatment, rating 0-100 (100=death), Table 1
Summary of the method: as §2

Veronica persica = experiment: Pre-emergence test, weed control; conditions: 3 weeks after treatment, rating 0-100 (100=death), Table 1
Summary of the method: as §2

Poa annua = experiment: Pre-emergence test, weed control; conditions: 3 weeks after treatment, rating 0-100 (100=death), Table 1
Summary of the method: as §2

Polygonum convolvulus = experiment: Pre-emergence test, weed control; conditions: 3 weeks after treatment, rating 0-100 (100=death), Table 1
Summary of the method: as §2

Setaria viridis = experiment: Pre-emergence test, weed control; conditions: 3 weeks after treatment, rating 0-100 (100=death), Table 1
Summary of the method: as §2

HORVW = experiment: Pre-emergence test, selectivity; conditions: 3 weeks after treatment, rating 0-100 (100=death), Table 2
Summary of the method: as §2

[7] = system: Hordeum vulgare variety “Mammut”; experiment: Pre-emergence test, selectivity; conditions: 3 weeks after treatment, rating 0-100 (100=death), Table 2
Summary of the method: as §2

[8] = system: Triticum aestivum variety “Monopol”; experiment: Pre-emergence test, selectivity; conditions: 3 weeks after treatment, rating 0-100 (100=death), Table 2
Summary of the method: as §2

[9] = system: Triticum aestivum variety “Kanzler”; experiment: Pre-emergence test, selectivity; conditions: 3 weeks after treatment, rating 0-100 (100=death), Table 2
Summary of the method: as §2

wheat = experiment: Post-emergence test, tolerance in wheat; conditions: post-emergence
Experimental: as §1

SMILES: FC(F)(F)c1ccc(-c2nccc(Oc3cccc(C(F)(F)F)c3)n2)cc1 [TTP, 4-(3-trifluoromethylphenoxy)-2-(4-trifluoromethyl-phenyl)-pyrimidine]
- STEME weed control rating (Stellaria media [1]; 0.030 kg/ha): 50
- STEME weed control rating (Stellaria media [1]; 0.060 kg/ha): 60
- STEME weed control rating (Stellaria media [1]; 0.120 kg/ha): 70
- STEME weed control rating (Stellaria media [1]; 0.240 kg/ha): 90
- VIOAR weed control rating (VIOAR; 0.030 kg/ha): 90
- VIOAR weed control rating (VIOAR; 0.060 kg/ha): 92
- VIOAR weed control rating (VIOAR; 0.120 kg/ha): 92
- VIOAR weed control rating (VIOAR; 0.240 kg/ha): 95
- GALAP weed control rating (Galium aparine [2]; 0.030 kg/ha): 60
- GALAP weed control rating (Galium aparine [2]; 0.060 kg/ha): 97
- GALAP weed control rating (Galium aparine [2]; 0.120 kg/ha): 80
- GALAP weed control rating (Galium aparine [2]; 0.240 kg/ha): 93
- LAMPU weed control rating (Lamium purpureum [3]; 0.030 kg/ha): 85
- LAMPU weed control rating (Lamium purpureum [3]; 0.060 kg/ha): 75
- LAMPU weed control rating (Lamium purpureum [3]; 0.120 kg/ha): 92
- LAMPU weed control rating (Lamium purpureum [3]; 0.240 kg/ha): 93
- STEME weed control rating (Stellaria media [4]; 0.015 kg/ha): 99
- STEME weed control rating (Stellaria media [4]; 0.030 kg/ha): 99
- STEME weed control rating (Stellaria media [4]; 0.060 kg/ha): 100
- STEME weed control rating (Stellaria media [4]; 0.120 kg/ha): 100
- STEME weed control rating (Stellaria media [4]; 0.240 kg/ha): 100
- ALOMY weed control rating (Alopecurus myosuroides; 0.015 kg/ha): 15
- ALOMY weed control rating (Alopecurus myosuroides; 0.030 kg/ha): 50
- ALOMY weed control rating (Alopecurus myosuroides; 0.060 kg/ha): 90
- ALOMY weed control rating (Alopecurus myosuroides; 0.120 kg/ha): 100
- ALOMY weed control rating (Alopecurus myosuroides; 0.240 kg/ha): 100
- APESV weed control rating (Apera spica-venti; 0.015 kg/ha): 100
- APESV weed control rating (Apera spica-venti; 0.030 kg/ha): 100
- APESV weed control rating (Apera spica-venti; 0.060 kg/ha): 100
- APESV weed control rating (Apera spica-venti; 0.120 kg/ha): 100
- APESV weed control rating (Apera spica-venti; 0.240 kg/ha): 100
- GALAP weed control rating (Galium aparine [5]; 0.015 kg/ha): 5
- GALAP weed control rating (Galium aparine [5]; 0.030 kg/ha): 30
- GALAP weed control rating (Galium aparine [5]; 0.060 kg/ha): 50
- GALAP weed control rating (Galium aparine [5]; 0.120 kg/ha): 75
- GALAP weed control rating (Galium aparine [5]; 0.240 kg/ha): 93
- LOLPE weed control rating (Lolium perenne; 0.015 kg/ha): 70
- LOLPE weed control rating (Lolium perenne; 0.030 kg/ha): 99
- LOLPE weed control rating (Lolium perenne; 0.060 kg/ha): 99
- LOLPE weed control rating (Lolium perenne; 0.120 kg/ha): 99
- LOLPE weed control rating (Lolium perenne; 0.240 kg/ha): 100
- LAMPU weed control rating (Lamium purpureum [6]; 0.015 kg/ha): 99
- LAMPU weed control rating (Lamium purpureum [6]; 0.030 kg/ha): 100
- LAMPU weed control rating (Lamium purpureum [6]; 0.060 kg/ha): 100
- LAMPU weed control rating (Lamium purpureum [6]; 0.120 kg/ha): 100
- LAMPU weed control rating (Lamium purpureum [6]; 0.240 kg/ha): 100
- MATIN weed control rating (Matricaria inodora; 0.015 kg/ha): 98
- MATIN weed control rating (Matricaria inodora; 0.030 kg/ha): 99
- MATIN weed control rating (Matricaria inodora; 0.060 kg/ha): 100
- MATIN weed control rating (Matricaria inodora; 0.120 kg/ha): 100
- MATIN weed control rating (Matricaria inodora; 0.240 kg/ha): 100
- VERPE weed control rating (Veronica persica; 0.015 kg/ha): 100
- VERPE weed control rating (Veronica persica; 0.030 kg/ha): 100
- VERPE weed control rating (Veronica persica; 0.060 kg/ha): 100
- VERPE weed control rating (Veronica persica; 0.120 kg/ha): 100
- VERPE weed control rating (Veronica persica; 0.240 kg/ha): 100
- POAAN weed control rating (Poa annua; 0.015 kg/ha): 100
- POAAN weed control rating (Poa annua; 0.030 kg/ha): 100
- POAAN weed control rating (Poa annua; 0.060 kg/ha): 100
- POAAN weed control rating (Poa annua; 0.120 kg/ha): 100
- POAAN weed control rating (Poa annua; 0.240 kg/ha): 100
- POLCO weed control rating (Polygonum convolvulus; 0.015 kg/ha): 80
- POLCO weed control rating (Polygonum convolvulus; 0.030 kg/ha): 100
- POLCO weed control rating (Polygonum convolvulus; 0.060 kg/ha): 100
- POLCO weed control rating (Polygonum convolvulus; 0.120 kg/ha): 100
- POLCO weed control rating (Polygonum convolvulus; 0.240 kg/ha): 100
- SETVI weed control rating (Setaria viridis; 0.015 kg/ha): 100
- SETVI weed control rating (Setaria viridis; 0.030 kg/ha): 100
- SETVI weed control rating (Setaria viridis; 0.060 kg/ha): 100
- SETVI weed control rating (Setaria viridis; 0.120 kg/ha): 100
- SETVI weed control rating (Setaria viridis; 0.240 kg/ha): 100
- HORVW rating (Selectivity) (HORVW; 0.015 kg/ha): 10
- HORVW rating (Selectivity) (HORVW; 0.030 kg/ha): 25
- HORVW rating (Selectivity) (HORVW; 0.060 kg/ha): 30
- HORVW rating (Selectivity) (HORVW; 0.120 kg/ha): 50
- HORVW rating (Selectivity) (HORVW; 0.240 kg/ha): 55
- HORVWM rating (Selectivity) ([7]; 0.015 kg/ha): 5
- HORVWM rating (Selectivity) ([7]; 0.030 kg/ha): 22
- HORVWM rating (Selectivity) ([7]; 0.060 kg/ha): 30
- HORVWM rating (Selectivity) ([7]; 0.120 kg/ha): 40
- HORVWM rating (Selectivity) ([7]; 0.240 kg/ha): 45
- TRZAWM rating (Selectivity) ([8]; 0.060 kg/ha): 1
- TRZAWM rating (Selectivity) ([8]; 0.120 kg/ha): 5
- TRZAWM rating (Selectivity) ([8]; 0.240 kg/ha): 15
- TRZAWK rating (Selectivity) ([9]; 0.120 kg/ha): 3
- TRZAWK rating (Selectivity) ([9]; 0.240 kg/ha): 10
- maximum tolerated dose in wheat / dose at which sufficiently selective in wheat (wheat): 240 g/ha
